Assay results: patent publication US20140038974A1, “Compositions and Methods for Eye Whitening” (Eye Therapies, LLC, priority 2009, published 2014)
Where two headings read alike, the source gives them in different places.

What was measured:
[1] = test system: α-2(a)-(c) adrenergic receptor subtypes; assay: α-2 receptor subtype preference, α-2(a)-(c) (Table 1); type: binding
[2] = Log P (Table 1); type: physicochemical
[3] = test system: eye; details: for effectiveness at reducing eye redness: both general eye redness and eye redness induced by drug administration
Source text: Redness reduction is on a scale from 0.00 to 4.00 with 0.00 denoting the greatest redness reduction and 4.00 denoting no redness reduction. Whitening is on a scale from 0.00 to 4.00 with 0.00 denoting pearly white, glistening color and 4.00 denoting no whitening effect.

[4] = test system: α-2 over α-1 adrenergic receptors
[5] = test system: conjunctival hyperemia / whiteness of eye; details: for subjects reporting reduced hyperemia and increased whiteness in the treated eye: […] brimonidine, one eye, 8 human subjects
Protocol: (§1) The subjects were administered with the drug in one eye and then asked to assess themselves in the mirror to see if they perceived a difference in conjunctival hyperemia between eyes. The assessments were made 5 minutes after the administration and 4 hours after the administration. After the four hours assessment, the drug was re-administered.

[6] = test system: nasal congestion
Protocol: as §1

[7] = test system: eye; details: […] brimonidine
Protocol: FIG. 13 is a photograph of both eyes of the person before the drug was administered. FIG. 14A is a close-up photograph of the right eye and FIG. 14B is a close-up photograph of the left eye.

[8] = with or without redness induced by drug administration

Compound | α-2(a)-(c) [1] | Log P [2] | effectiveness at reducing eye redness [3] | Other (pH dependence of effect) ([3]; in vivo) | Redness Reduction ([3]; in vivo) | further whitening eyes beyond their usual color [3, 8] | logP [2] | Selectivity [4] | subjects reporting reduced hyperemia and increased whiteness in the treated eye ([5]; 5 min assessment) | subjects reporting reduced hyperemia and increased whiteness in the treated eye ([5]; four hour assessment) | effect on redness and whiteness of eyes ([5]; low dose ([…]) brimonidine, Example 3 conclusion) | subjects reporting reduced nasal congestion in the nostril on the same side as the treated eye ([6]; […] brimonidine, one eye, four hour assessment, 8 human subjects) | effect on nasal congestion ([6]; in several subjects, nostril on the same side as the treated eye, Example 3 conclusion) | cosmetic whitening of an eye ([7]; right eye, person with healthy eyes, left eye untreated) | effect on redness and whiteness of an eye ([7]; child patient) | effect on redness and whiteness of an eye ([7]; patient with glaucoma receiving Lumigan (bimatoprost 0.03%)) | further whitening eyes beyond their usual color ([3]; after redness inducing drug administration)
Oc1ccc2c(c1)C(Cc1c[nH]cn1)CC2 (stereo not shown) [Fadolmidine, fadolmidine] | general | 2.16 | – | – | – | – | – | – | – | – | – | – | – | – | – | – | –
guanfacine | 2(a) high | – | highly effective | >effect hi pH | 0.00 | highly effective | – | – | – | – | – | – | – | – | – | – | –
Cc1cccc([C@H](C)c2cnc[nH]2)c1C [Dexmedetomidine, dexmedetomidine] | general | – | highly effective | – | – | generally ineffective | 3 | 1660 | – | – | – | – | – | – | – | – | –
Brc1c(NC2=NCCN2)ccc2nccnc12 [Brimonidine, brimonidine] | general | – | highly effective | >effect lo pH | – | – | 1 | – | eight of eight | eight of eight | significant reduction of redness and increase of whiteness | six of eight | reducing nasal congestion | noticeably cosmetically whitened | significant reduction of redness and increase of whiteness | significant reduction of redness and increase of whiteness | general ineffectiveness
